Test results: the supplement of paper PMC10627819

Key:
[1] = test system: B. subtilis 168; test: fitness (endpoint OD595 vs no drug) (fraction); higher = more growth
Summary of the method: (§1)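 At 37 °C, bacteria in TSB, LB Lennox or CY were grown in 384-well plates from a starting OD595 of 0.01. OD595 was measured every 30 min for 14 h, with the first reading used as background. Fitness is the optical density at the switch to stationary phase as a fraction of the robust mean of no-drug control wells, capped at 1.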

[2] = test system: S. pneumoniae D39V; test: as above
Summary of the method: as §1

[3] = test system: S. aureus DSM 20231; test: as above
Summary of the method: as §1

[4] = test system: B. subtilis 168; test: Bliss interaction score (quartile over a dose matrix) (fitness difference); higher = more antagonism (negative = synergy)
Summary of the method: (§2)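 Combination data were used to infer fitness under each single drug. Fitness is the OD595 at entry into stationary phase divided by the robust mean of the plate's no-drug wells, with a cap of 1. The Bliss score is the observed minus the expected product fitness, summarised by quartiles over technical, biological and donor/recipient replicates.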

[5] = test system: S. pneumoniae D39V; test: as above
Summary of the method: as §2

[6] = test system: S. aureus Newman; test: as above
Summary of the method: as §2

[7] = test system: S. aureus DSM 20231; test: as above
Summary of the method: as §2
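Wherever Bliss interaction score (quartile over a dose matrix) is given: first quartile when negative (synergy) and third quartile when positive (antagonism).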

CCC[C@@H]1C[C@@H](C(=O)N[C@@H]([C@H]2O[C@H](SC)[C@H](O)[C@@H](O)[C@H]2O)[C@@H](C)O)N(C)C1 [Lincomycin] + CC1=C\[C@@H](O)CC(=O)Cc2nc(co2)C(=O)N2CCC=C2C(=O)O[C@H](C(C)C)[C@H](C)/C=C/C(=O)NC\C=C\1 [Virginiamycin M1]
Details | fitness
[1], first compound 0.1 µg/mL, partner 0.0625 µg/mL | 0.945
[1], first compound 0.1 µg/mL, partner 0.125 µg/mL | 0.936
[1], first compound 0.1 µg/mL, partner 0.25 µg/mL | 0.922
[1], first compound 0.2 µg/mL, partner 0.0625 µg/mL | 0.91
[1], first compound 0.2 µg/mL, partner 0.125 µg/mL | 0.925
[1], first compound 0.2 µg/mL, partner 0.25 µg/mL | 0.949
[1], first compound 0.4 µg/mL, partner 0.0625 µg/mL | 0.99
[1], first compound 0.4 µg/mL, partner 0.125 µg/mL | 0.871
[1], first compound 0.4 µg/mL, partner 0.25 µg/mL | 0.985
[2], first compound 0.2 µg/mL, partner 2 µg/mL | 0.731
[2], first compound 0.215 µg/mL, partner 0.5 µg/mL | 0.857
[2], first compound 0.215 µg/mL, partner 1 µg/mL | 0.882
[2], first compound 0.215 µg/mL, partner 2 µg/mL | 0.836
[2], first compound 0.4 µg/mL, partner 2 µg/mL | 0.642
[2], first compound 0.43 µg/mL, partner 0.5 µg/mL | 0.73
[2], first compound 0.43 µg/mL, partner 1 µg/mL | 0.781
[2], first compound 0.43 µg/mL, partner 2 µg/mL | 0.741
[2], first compound 0.8 µg/mL, partner 2 µg/mL | 0.333
[2], first compound 0.86 µg/mL, partner 0.5 µg/mL | 0.268
[2], first compound 0.86 µg/mL, partner 1 µg/mL | 0.207
[2], first compound 0.86 µg/mL, partner 2 µg/mL | 0.195
[3], first compound 0.1 µg/mL, partner 0.0625 µg/mL | 0.844
[3], first compound 0.1 µg/mL, partner 0.125 µg/mL | 0.857
[3], first compound 0.1 µg/mL, partner 0.25 µg/mL | 0.875
[3], first compound 0.2 µg/mL, partner 0.0625 µg/mL | 0.73
[3], first compound 0.2 µg/mL, partner 0.125 µg/mL | 0.736
[3], first compound 0.2 µg/mL, partner 0.25 µg/mL | 0.7
[3], first compound 0.4 µg/mL, partner 0.0625 µg/mL | 0.361
[3], first compound 0.4 µg/mL, partner 0.125 µg/mL | 0.242
[3], first compound 0.4 µg/mL, partner 0.25 µg/mL | 0.267

fitness, one replicate
Details | first compound 0.1 µg/mL | first compound 0.2 µg/mL | first compound 0.4 µg/mL | first compound 0.8 µg/mL
[2], partner 0.15 µg/mL | – | 0.807 | 0.694 | 0.596
[2], partner 0.3 µg/mL | – | 0.796 | 0.657 | 0.573
[2], partner 0.5 µg/mL | – | 0.8 | 0.761 | 0.449
[2], partner 1 µg/mL | – | 0.71 | 0.655 | 0.416
[3], partner 0.5 µg/mL | 0.878 | 0.66 | 0.3 | –
[3], partner 1 µg/mL | 0.7 | 0.486 | 0.238 | –

Details | Bliss interaction score
[4] | -0.0247
[5] | -0.0882
[6] | 0.0588
[7] | -0.0744

CCC[C@@H]1C[C@@H](C(=O)N[C@@H]([C@H]2O[C@H](SC)[C@H](O)[C@@H](O)[C@H]2O)[C@@H](C)O)N(C)C1 [Lincomycin] + CC(=O)NC[C@H]1CN(c2ccc(N3CCOCC3)c(F)c2)C(=O)O1 [Linezolid]
Details | fitness
[1], first compound 0.1 µg/mL, partner 0.5 µg/mL | 0.0626
[1], first compound 0.2 µg/mL, partner 0.125 µg/mL | 0.643
[1], first compound 0.2 µg/mL, partner 0.5 µg/mL | 0.0527
[1], first compound 0.4 µg/mL, partner 0.125 µg/mL | 0.629
[1], first compound 0.4 µg/mL, partner 0.5 µg/mL | 0.0589
[2], first compound 0.2 µg/mL, partner 0.105 µg/mL | 0.717
[2], first compound 0.2 µg/mL, partner 0.21 µg/mL | 0.658
[2], first compound 0.2 µg/mL, partner 0.42 µg/mL | 0.519
[2], first compound 0.215 µg/mL, partner 0.2 µg/mL | 0.716
[2], first compound 0.215 µg/mL, partner 0.4 µg/mL | 0.649
[2], first compound 0.215 µg/mL, partner 0.8 µg/mL | 0.413
[2], first compound 0.4 µg/mL, partner 0.105 µg/mL | 0.627
[2], first compound 0.4 µg/mL, partner 0.21 µg/mL | 0.601
[2], first compound 0.4 µg/mL, partner 0.42 µg/mL | 0.234
[2], first compound 0.43 µg/mL, partner 0.2 µg/mL | 0.642
[2], first compound 0.43 µg/mL, partner 0.4 µg/mL | 0.583
[2], first compound 0.43 µg/mL, partner 0.8 µg/mL | 0.306
[2], first compound 0.8 µg/mL, partner 0.105 µg/mL | 0.278
[2], first compound 0.8 µg/mL, partner 0.21 µg/mL | 0.128
[2], first compound 0.8 µg/mL, partner 0.42 µg/mL | 0.0738
[2], first compound 0.86 µg/mL, partner 0.2 µg/mL | 0.392
[2], first compound 0.86 µg/mL, partner 0.4 µg/mL | 0.311
[2], first compound 0.86 µg/mL, partner 0.8 µg/mL | 0.13
[3], first compound 0.1 µg/mL, partner 0.125 µg/mL | 0.824
[3], first compound 0.1 µg/mL, partner 0.25 µg/mL | 0.628
[3], first compound 0.1 µg/mL, partner 0.5 µg/mL | 0.276
[3], first compound 0.2 µg/mL, partner 0.125 µg/mL | 0.583
[3], first compound 0.2 µg/mL, partner 0.5 µg/mL | 0.192
[3], first compound 0.4 µg/mL, partner 0.125 µg/mL | 0.244
[3], first compound 0.4 µg/mL, partner 0.25 µg/mL | 0.146
[3], first compound 0.4 µg/mL, partner 0.5 µg/mL | 0.0893

fitness, one replicate
Details | first compound 0.1 µg/mL | first compound 0.2 µg/mL | first compound 0.4 µg/mL | first compound 0.8 µg/mL | first compound 1.6 µg/mL
[1], partner 0.0625 µg/mL | – | – | 0.87 | 0.867 | 0.847
[1], partner 0.125 µg/mL | – | – | – | 0.633 | 0.638
[1], partner 0.25 µg/mL | – | – | – | 0.102 | 0.0942
[3], partner 1 µg/mL | 0.0602 | 0.0846 | 0.0423 | – | –

Details | Bliss interaction score
[4] | 0.158
[5] | 0.0482
[6] | -0.088
[7] | -0.069
